From publication PMC3914206

Legend:
Type in all cases: binding
panel of 442 kinases [1] = molecular target: T1, panel of 442 kinases (Homo sapiens, UniProt Q9UKE5); conditions: kinase TNIK; compound concentration 10 µM
T1 construct: purchased KINOMEscan
Text: (§1) We assessed the selectivity of members of this scaffold using the KINOMEscan methodology across a near comprehensive panel of 442 kinases [[18,27]].

panel of 442 kinases [2] = molecular target: T2, panel of 442 kinases (Homo sapiens, UniProt P68400); conditions: Compound Concentration 10 µM
T2 construct: purchased KINOMEscan
T2 sequence (P68400 whole entry): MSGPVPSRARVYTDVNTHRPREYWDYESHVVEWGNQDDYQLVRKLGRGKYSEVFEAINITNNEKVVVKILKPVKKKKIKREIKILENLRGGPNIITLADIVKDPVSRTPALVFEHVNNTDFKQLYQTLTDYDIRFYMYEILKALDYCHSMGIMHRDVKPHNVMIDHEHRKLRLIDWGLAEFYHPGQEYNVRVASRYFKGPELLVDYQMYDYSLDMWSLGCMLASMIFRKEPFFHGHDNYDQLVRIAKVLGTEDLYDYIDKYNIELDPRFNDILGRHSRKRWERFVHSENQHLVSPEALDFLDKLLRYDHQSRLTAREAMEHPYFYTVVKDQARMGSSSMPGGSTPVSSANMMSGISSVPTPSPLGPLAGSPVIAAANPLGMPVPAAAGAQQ
Text: as §1

panel of 442 kinases [3] = molecular target: T3, panel of 442 kinases (Homo sapiens, UniProt P53671); conditions: Compound Concentration 10 µM
T3 construct: purchased KINOMEscan
T3 sequence (P53671 whole entry): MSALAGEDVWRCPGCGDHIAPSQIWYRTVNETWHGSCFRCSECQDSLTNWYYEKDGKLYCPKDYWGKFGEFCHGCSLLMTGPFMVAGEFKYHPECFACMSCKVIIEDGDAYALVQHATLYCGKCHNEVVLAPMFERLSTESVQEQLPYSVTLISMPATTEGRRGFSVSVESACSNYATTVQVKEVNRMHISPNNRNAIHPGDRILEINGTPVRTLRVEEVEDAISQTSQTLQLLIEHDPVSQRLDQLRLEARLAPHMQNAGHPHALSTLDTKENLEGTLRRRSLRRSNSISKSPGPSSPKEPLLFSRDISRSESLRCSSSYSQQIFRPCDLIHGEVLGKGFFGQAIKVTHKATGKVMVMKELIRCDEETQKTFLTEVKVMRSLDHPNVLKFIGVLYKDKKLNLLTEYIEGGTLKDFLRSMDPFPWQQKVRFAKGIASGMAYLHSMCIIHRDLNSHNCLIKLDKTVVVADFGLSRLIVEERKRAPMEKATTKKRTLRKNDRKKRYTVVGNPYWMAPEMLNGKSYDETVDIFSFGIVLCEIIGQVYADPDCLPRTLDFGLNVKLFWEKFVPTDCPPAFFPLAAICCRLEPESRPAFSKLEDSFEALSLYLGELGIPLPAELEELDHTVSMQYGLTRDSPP
Text: as §1

panel of 442 kinases [4] = molecular target: T4, panel of 442 kinases (Homo sapiens, UniProt P07332); conditions: Compound Concentration 10 µM
T4 construct: purchased KINOMEscan
T4 sequence (P07332 whole entry): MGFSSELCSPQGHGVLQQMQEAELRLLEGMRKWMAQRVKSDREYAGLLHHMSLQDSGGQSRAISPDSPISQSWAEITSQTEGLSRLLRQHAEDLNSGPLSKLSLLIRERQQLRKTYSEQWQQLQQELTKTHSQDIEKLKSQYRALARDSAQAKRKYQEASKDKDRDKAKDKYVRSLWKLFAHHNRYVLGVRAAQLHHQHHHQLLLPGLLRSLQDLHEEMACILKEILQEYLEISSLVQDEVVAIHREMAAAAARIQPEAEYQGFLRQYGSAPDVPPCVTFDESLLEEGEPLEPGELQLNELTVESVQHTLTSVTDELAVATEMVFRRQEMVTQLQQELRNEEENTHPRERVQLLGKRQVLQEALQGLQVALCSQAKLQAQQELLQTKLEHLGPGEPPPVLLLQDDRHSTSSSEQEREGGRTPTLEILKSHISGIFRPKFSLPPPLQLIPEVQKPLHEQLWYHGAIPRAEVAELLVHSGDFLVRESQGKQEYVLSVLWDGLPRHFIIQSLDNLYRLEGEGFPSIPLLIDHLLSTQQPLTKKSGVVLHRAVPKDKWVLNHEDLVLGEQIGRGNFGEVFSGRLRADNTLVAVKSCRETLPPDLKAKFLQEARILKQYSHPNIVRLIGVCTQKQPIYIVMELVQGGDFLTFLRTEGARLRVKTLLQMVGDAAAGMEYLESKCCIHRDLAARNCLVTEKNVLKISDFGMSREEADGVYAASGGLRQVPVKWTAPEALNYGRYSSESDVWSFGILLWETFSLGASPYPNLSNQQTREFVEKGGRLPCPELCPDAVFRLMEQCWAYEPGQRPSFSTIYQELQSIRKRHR
Text: as §1

T1 sequence (Q9UKE5 whole entry): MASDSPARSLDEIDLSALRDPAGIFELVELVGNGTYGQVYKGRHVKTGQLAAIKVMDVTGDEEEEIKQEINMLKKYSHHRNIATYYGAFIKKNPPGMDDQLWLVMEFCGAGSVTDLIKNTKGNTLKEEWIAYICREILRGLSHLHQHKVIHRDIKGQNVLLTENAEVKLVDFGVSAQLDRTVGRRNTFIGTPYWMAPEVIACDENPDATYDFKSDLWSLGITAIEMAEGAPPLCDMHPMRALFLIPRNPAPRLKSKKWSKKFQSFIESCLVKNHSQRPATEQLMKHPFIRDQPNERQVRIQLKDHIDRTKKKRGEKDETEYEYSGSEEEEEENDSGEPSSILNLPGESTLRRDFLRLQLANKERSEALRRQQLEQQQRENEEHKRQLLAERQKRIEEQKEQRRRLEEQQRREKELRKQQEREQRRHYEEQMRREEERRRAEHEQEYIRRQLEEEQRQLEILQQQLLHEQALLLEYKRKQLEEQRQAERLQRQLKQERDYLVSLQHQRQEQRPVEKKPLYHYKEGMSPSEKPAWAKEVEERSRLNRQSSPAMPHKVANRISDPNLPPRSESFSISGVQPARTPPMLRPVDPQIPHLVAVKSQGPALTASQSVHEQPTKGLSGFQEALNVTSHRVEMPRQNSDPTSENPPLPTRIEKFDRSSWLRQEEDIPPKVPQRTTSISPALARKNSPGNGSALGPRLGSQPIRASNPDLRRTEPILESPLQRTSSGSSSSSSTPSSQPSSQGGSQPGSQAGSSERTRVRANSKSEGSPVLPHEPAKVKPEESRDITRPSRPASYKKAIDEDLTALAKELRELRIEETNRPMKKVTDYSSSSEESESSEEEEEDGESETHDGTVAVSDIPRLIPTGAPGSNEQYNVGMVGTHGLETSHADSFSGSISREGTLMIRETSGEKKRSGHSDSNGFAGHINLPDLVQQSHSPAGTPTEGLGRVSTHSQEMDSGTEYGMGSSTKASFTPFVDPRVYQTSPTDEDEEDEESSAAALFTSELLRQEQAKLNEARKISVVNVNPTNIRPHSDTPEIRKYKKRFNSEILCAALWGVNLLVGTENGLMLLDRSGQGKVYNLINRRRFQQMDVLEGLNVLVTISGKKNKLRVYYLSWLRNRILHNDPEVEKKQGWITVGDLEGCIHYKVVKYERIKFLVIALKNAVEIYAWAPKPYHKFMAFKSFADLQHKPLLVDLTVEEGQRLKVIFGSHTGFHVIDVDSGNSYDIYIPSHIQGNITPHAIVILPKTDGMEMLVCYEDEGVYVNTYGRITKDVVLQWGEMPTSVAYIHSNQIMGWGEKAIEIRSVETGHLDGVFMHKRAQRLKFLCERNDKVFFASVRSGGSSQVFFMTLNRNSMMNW

| Structure (SMILES) | % Ctrl, TNIK (panel of 442 kinases [1]) | KINOMEscan: CSNK2A1 (panel of 442 kinases [2]) | KINOMEscan: LIMK2 (panel of 442 kinases [3]) | KINOMEscan: FES (panel of 442 kinases [4]) |
| --- | --- | --- | --- | --- |
| CCOc1cc(C(=O)N2CCC(N3CCN(C)CC3)CC2)ccc1Nc1ncc2c(n1)N(C1CCCC1)c1ccccc1C(=O)N2C [Compound 26] | 94 % Ctrl | 89 | 100 | 100 |
| COc1cc(C(=O)N2CCC(N3CCN(C)CC3)CC2)ccc1Nc1ncc2c(n1)N(C1CCCC1)c1ccccc1C(=O)N2C [Compound 25, 11-cyclopentyl-2-((2-methoxy-4-(4-(4-methylpiperazin-1-yl)piperidine-1-carbonyl)phenyl)amino)-5-methyl-5H-benzo[e]pyrimido[5,4-b][1,4]diazepin-6(11H)-one] | 100 % Ctrl | 100 | 100 | 89 |
| COc1cc(C(=O)N2CCC(N3CCN(C)CC3)CC2)ccc1Nc1ncc2c(n1)N1CCc3cccc(c31)C(=O)N2C [Compound 24] | 56 % Ctrl |  |  |  |
| COc1cc(C(=O)N2CCC(N3CCN(C)CC3)CC2)ccc1Nc1ncc2c(n1)N(C)c1ccccc1C(=O)N2C [15 (LRRK2-IN-1)] | 100 % Ctrl | 100 | 100 | 84 |
